Measured values taken from patent US10933009B2, “Formulations and methods for treating dermatological disorders and diseases” (VAPOGENIX, INC., priority 2011, dated 2021).

Experiment: Isoflurane remaining in uncapped vials, determined by weighing over time
Format: physicochemical
Experimental: In the Examples that follow, the stability of isoflurane in the described compositions was determined in two ways. First, the compositions were examined for the presence of phase separation at the macroscopic level. Secondly, isoflurane content of the compositions was determined by weighing the remaining isoflurane in the composition when they were left uncapped over time. Briefly, glass vials were filled with 5-10 ml of the composition vehicle and then weighed; one of them received only vehicle (i.e., no isoflurane) and served as control. The other vials received varying amounts of isoflurane. They were left uncapped in the hood. Over time, the vials were weighed to see if the isoflurane stayed in the composition or had evaporated. The amount evaporated over time in the vehicle control was subtracted from that in the isoflurane-containing composition.
The pure form of isoflurane is a volatile anesthetic. In order to assess the volatility of isoflurane, two vials received the indicated amounts of pure form isoflurane. The vials were placed in the chemical fume hood and left uncapped. The vials were weighed at the indicated times to determine the amount of evaporated isoflurane. As it is shown in the table below 0.7893 g isoflurane was evaporated within 3 hours, while 3.4825 g isoflurane took approximately 8 hrs to evaporate completely. These amounts of isoflurane are similar to the amounts of isoflurane that were used to prepare the isoflurane compositions in the Examples that follow.

[1] = pure form of isoflurane 0.7893 g, uncapped vial
[2] = pure form of isoflurane 3.4825 g, uncapped vial

FC(F)OC(Cl)C(F)(F)F (stereo not drawn) [isoflurane]
time for isoflurane to evaporate (0.7893 g pure isoflurane, uncapped vial in fume hood): ≤ 3 h | time for isoflurane to evaporate completely (3.4825 g pure isoflurane, uncapped vial in fume hood): approximately 8 hrs | 0 h (% remaining iso) (pure form of isoflurane 0.7893 g, uncapped vial in fume hood): 100% | 0.25 h (% remaining iso) [1]: 85% | 1 h (% remaining iso) [1]: 52% | 2 h (% remaining iso) [1]: 14% | 3 h (% remaining iso) [1]: 0% | 0 h (% remaining iso) (pure form of isoflurane 3.4825 g, uncapped vial in fume hood): 100% | 0.25 h (% remaining iso) [2]: 96% | 1 h (% remaining iso) [2]: 86% | 2 h (% remaining iso) [2]: 75% | 3 h (% remaining iso) [2]: 62% | 5 h (% remaining iso) (pure form of isoflurane 3.4825 g, uncapped vial, 5 h): 38% | 7 h (pure form of isoflurane 3.4825 g, uncapped vial, 7 h): 13% | 8 h (pure form of isoflurane 3.4825 g, uncapped vial, 8 h): 3%
